Patent US10526347B2, “3-(3H-imidazo[4,5-B]pyridin-2-yl)-1H-pyrazolo[3,4-B]pyridine and therapeutic uses thereof” (Samumed, LLC, priority 2014, dated 2020)

What was measured:
Assay type in all cases: cell-based
[1] = test system: Wnt activity (SW480 colon carcinoma cells stably expressing the Sp5-Luc reporter gene); experiment: Sp5-Luc reporter gene screening assay for Wnt activity; conditions: Homo sapiens
How it was run: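 The SW480 cells carry a lentiviral luciferase reporter driven by a Sp5 promoter with eight TCF/LEF sites. They were plated at 10,000 cells/well in 10% FCS overnight, then pinned with 50 nl of 3-fold dilutions (10 mM top source concentration) into 50 μl.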

[2] = test system: primary human mesenchymal stem cells (hMSCs); experiment: Chondrogenesis induction in primary human mesenchymal stem cells (chondrogenic nodules, Rhodamine B / Nile Red); conditions: 6 days; for Max. Activity as % TGF-β3 activity: positive control TGF-β3 10 ng/mL, nodule number normalized to DMSO; for EC (100% of TGF-beta3 activity): Homo sapiens, Mesenchymal stem cells, 144 h, concentration required to induce chondrogenesis equivalent to TGF-β3 10 ng/mL, read-out: Conc (nM) of 100% TGF-β3 activity
Experimental: The above synthesized compounds were screened using primary human mesenchymal stem cells (hMSCs) to determine their ability to induce chondrogenesis (process by which cartilage is developed).
Primary human mesenchymal stem cells (hMSCs) were purchased from Lonza (Walkersville, Md.) and expanded in Mesenchymal Stem Cell Growth Media (Lonza). Cells between passage 3 and 6 were used for the experiments.
Each compound was dissolved in DMSO as a 10 mM stock and used to prepare compound source plates. Serial dilution (1:3, 6-point dose-response curves from 2700 nM to 10 nM) and compound transfer was performed using the ECHO 550 (Labcyte, Sunnyvale, Calif.) into 96-well clear bottom assay plates (Greiner Bio-One) with appropriate DMSO backfill for a final DMSO concentration of 0.03%. hMSCs were plated at 20,000 cells/well in 250 μL/well Incomplete Chondrogenic Induction Medium (Lonza; DMEM, dexamethasone, ascorbate, insulin-transferrin-selenium [ITS supplement], gentamycin-amphotericin [GA-1000], sodium pyruvate, proline and L-glutamine). TGF-β3 (10 ng/mL) was used as a positive control for differentiation while negative control wells were treated with 75 nL DMSO for normalization and calculating EC50 values. Cells were incubated at 37° C. and 5% CO2 for 6 days. To image chondrogenic nodules, the cells were fixed using 4% formaldehyde (Electron Microscopy Sciences), and stained with 2 μg/mL Rhodamine B (Sigma-Aldrich) and 20 μM Nile Red (Sigma-Aldrich) [Johnson K., et. al, A Stem Cell-Based Approach to Cartilage Repair, Science, (2012), 336(6082). 717-721]. The nodules imaged (4 images per well at 4× magnification) by excitation at 531 nm and emission at 625 nm and quantified using the CellInsight CX5 (Thermo Scientific). Number of nodules in each well was normalized to the average of 3 DMSO treated wells on the same plate using Excel (Microsoft Inc.). The normalized averages (fold change over DMSO) of 3 replicate wells for each compound concentration were calculated. Due to solubility limitations of some of the compounds, curve fitting was incomplete leading to inaccurate EC50 determinations.
Using TGF-β3 as a positive control, the concentration of test compounds required to induce equivalent levels of chondrogenesis is reported. In addition, the maximum activity of each compound and the respective dose that each compound reached maximum chondrogenesis activity is reported.

[3] = test system: primary human fibroblasts derived from IPF patients (LL29 cells); experiment: Inhibition of the fibrotic process in TGF-β1 treated IPF patient fibroblasts (αSMA staining); conditions: Fibroblast, 96 h, LL29 cells treated with TGF-β1 (20 ng/mL), 4 days, read-out: Inhibition of fibrosis EC50
How it was run: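 LL29 IPF lung fibroblasts in F12 with 1% FBS, compound (11-point, 10 μM to 1.87 nM, 0.1% DMSO) plus TGF-β1 20 ng/mL for 4 days at 37° C. αSMA-positive % of SYTOX-negative cells by immunofluorescence imaging, normalized to TGF-β1 wells; EC50 from non-linear regression of triplicates.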

IC50 [1] [nM]	Structure (SMILES)	Max. Activity as % TGF-β3 activity [2] [%]	EC (100% of TGF-beta3 activity) [2] [nM]	EC50 [3] [nM]
36.6	CCC(=O)Nc1cncc(-c2cnc3[nH]nc(-c4nc5c(N6CCCCC6)ccnc5[nH]4)c3c2)c1 [Compound 133, N-(5-(3-(7-(Piperidin-1-yl)-3H-imidazo[4,5-b]pyridin-2-yl)-1H-pyrazolo[3,4-b]pyridin-5-yl)pyridin-3-yl)propionamide]	300	317	853
2.7	CCCC(=O)Nc1cncc(-c2cnc3[nH]nc(-c4nc5c(-c6ccsc6)ccnc5[nH]4)c3c2)c1 [Compound 249, N-(5-(3-(7-(Thiophen-3-yl)-3H-imidazo[4,5-b]pyridin-2-yl)-1H-pyrazolo[3,4-b]pyridin-5-yl)pyridin-3-yl)butyramide]		31.9	35
30	Fc1cccc(-c2ccnc3[nH]c(-c4n[nH]c5ncc(-c6cn[nH]c6)cc45)nc23)c1 [Compound 911, 3-(7-(3-Fluorophenyl)-3H-imidazo[4,5-b]pyridin-2-yl)-5-(1H-pyrazol-4-yl)-1H-pyrazolo[3,4-b]pyridine]	100	110	29
11.5	O=C(Nc1cncc(-c2cnc3[nH]nc(-c4nc5c(-c6ccc(F)cc6)ccnc5[nH]4)c3c2)c1)C1CCC1 [Compound 38, N-(5-(3-(7-(4-Fluorophenyl)-3H-imidazo[4,5-b]pyridin-2-yl)-1H-pyrazolo[3,4-b]pyridin-5-yl)pyridin-3-yl)cyclobutanecarboxamide]		48.6	118
